Each structure is given as a SMILES string.

The first assay deals with T1, human adenosine A2A receptor (Homo sapiens, UniProt P29274).
T1 construct: expressed in transfected cells; host or cells: CHO cells, semliki forest virus expression system; membrane preparation
T1 sequence (P29274 whole entry): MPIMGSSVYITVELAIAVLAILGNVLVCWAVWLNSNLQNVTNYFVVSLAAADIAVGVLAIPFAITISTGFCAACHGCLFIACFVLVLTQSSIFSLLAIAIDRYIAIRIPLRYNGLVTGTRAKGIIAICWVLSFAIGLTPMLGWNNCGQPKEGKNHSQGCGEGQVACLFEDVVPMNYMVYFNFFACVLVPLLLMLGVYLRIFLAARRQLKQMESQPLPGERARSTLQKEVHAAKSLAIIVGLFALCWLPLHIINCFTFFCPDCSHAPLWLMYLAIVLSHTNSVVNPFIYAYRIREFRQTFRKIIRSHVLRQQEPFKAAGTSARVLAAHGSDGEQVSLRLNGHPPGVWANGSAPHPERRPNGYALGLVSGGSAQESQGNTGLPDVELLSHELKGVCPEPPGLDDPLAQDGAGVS
Put plainly: Human adenosine A2A receptor [3H]-SCH-583261 binding assay (SPA, CHO cell membranes). The note with it: [3H]-SCH-583261 1 nM; membranes of CHO cells expressing the recombinant receptor; Ki by Cheng-Prussoff equation. On the procedure:
Human Adenosine A2A Receptor
The human adenosine A2A receptor was recombinantly expressed in chinese hamster ovary (CHO) cells using the semliki forest virus expression system. Cells were harvested, washed twice by centrifugation, homogenised and again washed by centrifugation. The final washed membrane pellet was suspended in a Tris (50 mM) buffer containing 120 mM NaCl, 5 mM KCl, 2 mM CaCl2 and 10 mM MgCl2 (pH 7.4) (buffer A). The [^3H]-SCH-583261 (Dionisotti et al., 1997, Br J Pharmacol 121, 353; 1 nM) binding assay was carried out in 96-well plates in the presence of 2.5 μg of membrane protein, 0.5 mg of Ysi-poly-1-lysine SPA beads and 0.1 U adenosine deaminiase in a final volume of 200 μl of buffer A. Non-specific binding was defined using xainthine amine congener (XAC; 2 μM). Compounds were tested at 10 concentrations from 10 μM-0.3 nM. All assays were conducted in duplicate and repeated at least two times. Assay plates were incubated for 1 hour at room temperature before centrifugation and then bound ligand determined using a Packard Topcount scintillation counter. IC50 values were calculated using a non-linear curve fitting program and Ki values calculated using the Cheng-Prussoff equation.
`COc1ccc(N2CCCCC2)c2sc(NC(=O)c3ccnc(CN4CCCC4)c3)nc12` [Example 70, N-(4-Methoxy-7-piperidin-1-yl-benzothiazol-2-yl)-2-pyrrolidin-1-yl-methyl-isonicotinamide]: the “hA2 (pKi)” value turned out to be 8.9.

Still in this assay, the particulars now being: [3H]-SCH-583261 1 nM; membranes of CHO cells expressing the recombinant receptor; Ki by Cheng-Prussoff equation; read-out: hA2 (pKi) (converted).
Regarding `COc1ccc(N2CCOCC2)c2sc(NC(=O)c3ccnc(OC(C)C)c3)nc12` [Example 77, 2-Isopropoxy-N-(4-methoxy-7-morpholin-4-yl-benzothiazol-2-yl)-isonicotinamide], the Ki is 2.88 nM.

Regarding `COc1ccc(N2CCOCC2)c2sc(NC(=O)c3ccnc(N(C)Cc4ccccc4)c3)nc12` [Example 96, 2-(Benzyl-methyl-amino)-N-(4-methoxy-7-morpholin-4-yl-benzothiazol-2-yl)-isonicotinamide], the Ki was 1.62 nM.

For `COc1ccc(N2CCOCC2)c2sc(NC(=O)c3ccnc(SC)c3)nc12` [Example 80, N-(4-Methoxy-7-morpholin-4-yl-benzothiazol-2-yl)-2-methylsulfanyl-isonicotinamide], the Ki is 2.09 nM.

Consider `COc1ccc(N2CCOCC2)c2sc(NC(=O)c3ccnc(N(C)CCN(C)C)c3)nc12` [Example 99, 2-[(2-Dimethylamino-ethyl)-methyl-amino]-N-(4-methoxy-7-morpholin-4-yl-benzothiazol-2-yl)-isonicotinamide], for which the Ki was 0.603 nM.

For the compound `COc1ccc(N2CCOCC2)c2sc(NC(=O)c3ccnc(C4CCCCC4)c3)nc12` [Example 24, 2-Cyclohexyl-N-(4-methoxy-7-morpholin-4-yl-benzothiazol-2-yl)-isonicotinamide], the Ki was 2.24 nM.

In the case of `COc1ccc(N2CCOCC2)c2sc(NC(=O)c3ccnc(N4CCN(C)CC4)c3)nc12` [Example 10, N-(4-Methoxy-7-morpholin-4-yl-benzothiazol-2-yl)-2-(4-methyl-piperazin-1-yl)-isonicotinamide], the Ki is 0.724 nM.

On to `COc1ccc(N2CCOCC2)c2sc(NC(=O)c3ccnc(CN4CCCC4)c3)nc12` [Example 54, N-(4-Methoxy-7-morpholin-4-yl-benzothiazol-2-yl)-2-pyrrolidin-1-ylmethyl-isonicotinamide], for which the Ki is 2 nM.

On to `CNCc1cc(C(=O)Nc2nc3c(OC)ccc(N4CCOCC4)c3s2)ccn1` [Example 58, N-(4-Methoxy-7-morpholin-4-yl-benzothiazol-2-yl)-2-methylaminomethyl-isonicotinamide], for which the Ki was 2 nM.

As to `CCOc1cc(C(=O)Nc2nc3c(OC)ccc(N4CCOCC4)c3s2)ccn1` [Example 3, 2-Ethoxy-N-(4-methoxy-7-morpholin-4-yl-benzothiazol-2-yl)-isonicotinamide], the Ki is 3.09 nM.

For `COc1ccc(N2CCOCC2)c2sc(NC(=O)c3ccnc(OCc4ccccc4)c3)nc12` [Example 4, 2-Benzyloxy-N-(4-methoxy-7-morpholin-4-yl-benzothiazol-2-yl)-isonicotinamide], the Ki is 2.63 nM.

For the compound `COc1ccc(N2CCOCC2)c2sc(NC(=O)c3ccnc(N(C)C4CCCCC4)c3)nc12` [Example 95, 2-(Cyclohexyl-methyl-amino)-N-(4-methoxy-7-morpholin-4-yl-benzothiazol-2-yl)-isonicotinamide], the Ki was 1.91 nM.

For the compound `COc1ccc(N2CCOCC2)c2sc(NC(=O)c3ccc(OC(C)C)nc3)nc12` [Example 44, 6-Isopropoxy-N-(4-methoxy-7-morpholin-4-yl-benzothiazol-2-yl)-nicotinamide], the Ki is 3.02 nM.

Regarding `COc1ccc(N2CCOCC2)c2sc(NC(=O)c3ccnc(NC4CCC4)c3)nc12` [Example 90, 2-Cyclobutylamino-N-(4-methoxy-7-morpholin-4-yl-benzothiazol-2-yl)-isonicotinamide], the Ki was 1.74 nM.

Consider `COc1ccc(N2CCOCC2)c2sc(NC(=O)c3ccnc(N(C)CCc4ccccc4)c3)nc12` [Example 97, N-(4-Methoxy-7-morpholin-4-yl-benzothiazol-2-yl)-2-(methyl-phenethyl-amino)-isonicotinamide], for which the Ki was 2.24 nM.

Take `COc1ccc(N2CCOCC2)c2sc(NC(=O)c3ccnc(NCCNC(C)=O)c3)nc12` [Example 15, 2-(2-Acetylamino-ethylamino)-N-(4-methoxy-7-morpholin-4-yl-benzothiazol-2-yl)-isonicotinamide]: the Ki is 1.91 nM.

Take `COc1ccc(N2CCOCC2)c2sc(NC(=O)c3ccnc(NCCN4CCOCC4)c3)nc12` [Example 18, N-(4-Methoxy-7-morpholin-4-yl-benzothiazol-2-yl)-2-(2-morpholin-4-yl-ethylamino)-isonicotinamide]: the Ki is 0.617 nM.

Take `COc1ccc(N2CCOCC2)c2sc(NC(=O)c3ccnc(N4C[C@@H]5C[C@H]4CO5)c3)nc12` [Example 31, N-(4-Methoxy-7-morpholin-4-yl-benzothiazol-2-yl)-2-{(1S,4S)-2-oxa-5-aza-bicyclo[2.2.1]hept-5-yl}-isonicotinamide]: the Ki is 1 nM.

For `COc1ccc(N2CCOCC2)c2sc(NC(=O)c3ccc(NCc4ccccn4)nc3)nc12` [Example 40, N-(4-Methoxy-7-morpholin-4-yl-benzothiazol-2-yl)-6-[(pyridin-2-ylmethyl)-amino]-nicotinamide], the Ki is 1.02 nM.

For the compound `COc1ccc(N2CCOCC2)c2sc(NC(=O)c3ccnc(NCCc4ccccn4)c3)nc12` [Example 8, N-(4-Methoxy-7-morpholin-4-yl-benzothiazol-2-yl)-2-(2-pyridin-2-yl-ethylamino)-isonicotinamide], the Ki is 1.78 nM.

Regarding `COc1ccc(N2CCOCC2)c2sc(NC(=O)c3ccnc(OCCN(C)C)c3)nc12` [Example 86, 2-(2-Dimethylamino-ethoxy)-N-(4-methoxy-7-morpholin-4-yl-benzothiazol-2-yl)-isonicotinamide], the Ki was 0.501 nM.

Consider `COc1ccc(N2CCOCC2)c2sc(NC(=O)c3ccnc(N4CC(OC)C4)c3)nc12` [Example 75, 2-(3-Methoxy-azetidin-1-yl)-N-(4-methoxy-7-morpholin-4-yl-benzothiazol-2-yl)-isonicotinamide], for which the Ki was 1.91 nM.

For the compound `COc1ccc(N2CCOCC2)c2sc(NC(=O)c3ccnc(NCc4ccccn4)c3)nc12` [Example 13, N-(4-Methoxy-7-morpholin-4-yl-benzothiazol-2-yl)-2-[(pyridin-2-ylmethyl)-amino]-isonicotinamide], the Ki was 1.55 nM.

As for `COc1ccc(C(=O)Nc2nc3c(OC)ccc(N4CCOCC4)c3s2)cn1` [Example 35, 6-Methoxy-N-(4-methoxy-7-morpholin-4-yl-benzothiazol-2-yl)-nicotinamide], the Ki is 2 nM.

Turning to `COc1cc(C(=O)Nc2nc3c(OC)ccc(N4CCOCC4)c3s2)ccn1` [Example 5, 2-Methoxy-N-(4-methoxy-7-morpholin-4-yl-benzothiazol-2-yl)-isonicotinamide], the Ki was 2.63 nM.

With `COc1ccc(N2CCOCC2)c2sc(NC(=O)c3ccnc(CN4CCOCC4)c3)nc12` [Example 56, N-(4-Methoxy-7-morpholin-4-yl-benzothiazol-2-yl)-2-morpholin-4-ylmethyl-isonicotinamide], the Ki is 1.58 nM.

Regarding `CCCCNCc1cc(C(=O)Nc2nc3c(OC)ccc(N4CCOCC4)c3s2)ccn1` [Example 52, 2-Butylaminomethyl-N-(4-methoxy-7-morpholin-4-yl-benzothiazol-2-yl)-isonicotinamide], the Ki is 1.58 nM.

Take `COCCOc1cc(C(=O)Nc2nc3c(OC)ccc(N4CCOCC4)c3s2)ccn1` [Example 1, 2-(2-Methoxy-ethoxy)-N-(4-methoxy-7-morpholin-4-yl-benzothiazol-2-yl)-isonicotinamide]: the Ki is 3.16 nM.

With `COc1ccc(N2CCOCC2)c2sc(NC(=O)c3ccnc(CNCCCC(=O)OC(C)(C)C)c3)nc12` [Example 62, 4-{[4-(4-Methoxy-7-morpholin-4-yl-benzothiazol-2-yl-carbamoyl)-pyridin-2-yl-methyl]-amino}-butyric Acid tert-Butyl Ester], the Ki is 1.58 nM.

`CCCNc1cc(C(=O)Nc2nc3c(OC)ccc(N4CCOCC4)c3s2)ccn1` [Example 93, N-(4-Methoxy-7-morpholin-4-yl-benzothiazol-2-yl)-2-propylamino-isonicotinamide]: the Ki is 1.07 nM.

Consider `COc1ccc(N2CCOCC2)c2sc(NC(=O)c3ccnc(OCCN4CCOCC4)c3)nc12` [Example 87, N-(4-Methoxy-7-morpholin-4-yl-benzothiazol-2-yl)-2-(2-morpholin-4-yl-ethoxy)-isonicotinamide], for which the Ki was 0.851 nM.

On to `COc1ccc(N2CCOCC2)c2sc(NC(=O)c3ccnc(NCc4ccccc4)c3)nc12` [Example 83, 2-Benzylamino-N-(4-methoxy-7-morpholin-4-yl-benzothiazol-2-yl)-isonicotinamide], for which the Ki was 1.74 nM.

In the case of `COc1ccc(N2CCOCC2)c2sc(NC(=O)c3ccnc(N4CC(O)C4)c3)nc12` [Example 74, 2-(3-Hydroxy-azetidin-1-yl)-N-(4-methoxy-7-morpholin-4-yl-benzothiazol-2-yl)-isonicotinamide], the Ki is 1.35 nM.

On to `CCSc1cc(C(=O)Nc2nc3c(OC)ccc(N4CCOCC4)c3s2)ccn1` [Example 81, 2-Ethylsulfanyl-N-(4-methoxy-7-morpholin-4-yl-benzothiazol-2-yl)-isonicotinamide], for which the Ki is 2.4 nM.
